Data on two molecules can be found in patent USRE39030E1 (Eli Lilly and Company, priority 1997, dated 2006).

Counter-ions that a name gives are not always drawn.

For series [1] the following is noted: 60 mg once per week vs 20 mg per day; maintenance therapy after eight weeks of daily dosing; cited from earlier work.
The nature of series [2]: interaction of fluoxetine with lactose (reducing sugar) over time. The series is classed as physicochemical. The settings on record: room temperature and accelerated stability conditions (heat). The source says: When used in this description, the term “sugar” refers to a sugar other than a reducing sugar. A reducing sugar is a carbohydrate that reduces Fehling's (or Benedict's) or Tollens' reagent. All monosaccharides are reducing sugars as are most disaccharides with the exception of sucrose. One common sugar used frequently as a binding or filling agent is lactose. […] As discussed below, sucrose is a preferred sugar.

The conditions of series [3]: 120 mg dosed biweekly; cited from earlier work.

With `CNCCC(Oc1ccc(C(F)(F)F)cc1)c1ccccc1` (stereo not drawn) [fluoxetine hydrochloride], the “effectiveness during maintenance therapy” value in series [1] is recorded as “as effective as 20 mg per day”.
`CNCCC(Oc1ccc(C(F)(F)F)cc1)c1ccccc1` (stereo not drawn) [fluoxetine, N-methyl-3-(p-trifluoromethylphenoxy)-3-phenylpropylamine]: in series [2], the interaction with lactose result was “interacts with lactose both at room temperature and under accelerated stability conditions (heat)”. Also, in series [3], the “effectiveness for treating recurrent brief depression” value was “ineffective”.
